Measured values taken from US12686832B2, “Ashless ionic liquid” (PETROLIAM NASIONAL BERHAD (PETRONAS), priority 2022, dated 2026).

Experiments:
[1] = Miscibility study in ETRO 4+; type: physicochemical; details: 1 wt. % in ETRO 4+, mixed at 60° C. for 1 h, left 24 h before observation
Procedure: Synthesised ionic liquids (1 wt. %) were mixed with ETRO 4+ solution at 60° C. for 1 h, and left to sit for 24 h before observation.

[2] = Thermo-gravimetric analysis under nitrogen (ashless nature); type: physicochemical
Excerpt: The ashless nature of the formed ionic liquid was confirmed by thermo-gravimetric analysis under nitrogen (0.4788 wt. % residue).
The ashless nature of the formed ionic liquid was confirmed by thermo-gravimetric analysis under nitrogen (0.47271 wt. % residue).

[3] = Experimental solubility at 1 wt % in lubricant base oils; type: physicochemical
Procedure: ILN18-5B-DC12 was mixed in mineral base oil Group III+ (ETRO 4+) and PETRONAS LB 25 polyol ester (and their mixtures) at 1 wt. % concentration to assess solubility and tribology evaluation. Samples were prepared by mixing the solutions at 60° C. for 1 h.
Samples were prepared by mixing the solutions at 60° C. for 1 h.
ILN18-MECA-1 was mixed in mineral base oil Group III+(ETRO 4+) and PETRONAS LB 25 polyol ester at 1 wt % concentration respectively to assess solubility and tribology evaluation. Samples were prepared by mixing the solutions at 60° C. for 1 h.

[4] = High Frequency Reciprocating Rig (HFRR) tribology test; details: for Friction coefficient behaviour over contact time / friction reduction compared to the baseline fluid / wear scar diameter reduction compared to the baseline fluid: 1 wt % in PETRONAS LB 25 polyol ester; for Friction coefficient behaviour over contact time: vs baseline fluid
Procedure: High Frequency Reciprocating Rig (HFRR): tribology test rubbing of ball to disc metal specimens, under pure sliding contact (boundary lubrication regime), load at 400 g, frequency at 20 Hz, temperature at 120° C. for 60 mins. Only visually soluble solutions were evaluated, therefore, only Formulation 2 and Formulation 3 were tested. Reported values were the average of minimum 2 repeat runs.
High Frequency Reciprocating Rig (HFRR): tribology test rubbing of ball to disc metal specimens, under pure sliding contact (boundary lubrication regime), load at 400 g, frequency at 20 Hz, temperature at 120° C. for 60 mins. Only visually soluble solutions were evaluated, therefore, only Formulation 2 was tested. Reported values were the average of minimum 2 replicate runs.
High Frequency Reciprocating Rig (HFRR): tribology test rubbing of ball to disc metal specimens, under pure sliding contact (boundary lubrication regime), load at 400 g, frequency at 20 Hz, temperature at 120° C. for 60 mins. Reported values were the average of minimum 2 replicate runs.

[5] = 1 wt % in ETRO 4+ (89%) and LB 25 (10%), HFRR 400 g, 20 Hz, 120° C., 60 mins
[6] = HFRR 400 g, 20 Hz, 120° C., 60 mins

Row | Compound | Appearance (miscibility) [1] | residue in thermo-gravimetric analysis [2] | Friction coefficient behaviour over contact time [4] | friction reduction compared to the baseline fluid [4, 6] | wear scar diameter reduction compared to the baseline fluid [4, 6] | also measured
1 | CC(C)(COC(=O)CCCCCCCCC(=O)[O-])COC(=O)CCCCCCCCC(=O)[O-].CCCCCCCC[N+](C)(CCCCCCCC)CCCCCCCC.CCCCCCCC[N+](C)(CCCCCCCC)CCCCCCCC [ILN18-5B-DC10] | Insoluble (2 separate phases) |  |  |  |  | 
2 | CC(C)(COC(=O)CCCCCCCCCCC(=O)O)COC(=O)CCCCCCCCCCC(=O)O [ILN18-5B-DC12] |  | 0.4788 wt. % | significant friction reduction | 67% | 59% | Experimental solubility ([3]; Formulation 1: 1 wt % in Group III Mineral Oil (ETRO 4+), mixed at 60° C. for 1 h): Insoluble; Experimental solubility ([3]; Formulation 2: 1 wt % in PETRONAS polyol ester LB 25, mixed at 60° C. for 1 h): Soluble, clear solution; Experimental solubility ([3]; Formulation 3: 1 wt % in ETRO 4+ (89%) and LB 25 (10%), mixed at 60° C. for 1 h): Soluble, clear solution; friction reduction compared to baseline [4, 5]: 55%; wear scar diameter reduction compared to baseline [4, 5]: 57%
3 | CCCCCCCCC(=O)OC(CCCCCC)CCCCCCCCCCC(=O)[O-].CCCCCCCC[N+](C)(CCCCCCCC)CCCCCCCC (stereo not shown) [ILN18-MECA-4] | Clear solution |  |  |  |  | 
4 | tris-(trioctyl methylammonium) trisebacate [ILN18-6BT-DC10] |  | 0.4727 wt. % | significant friction reduction | 57% | 58% | 
5 | CCCCCCCC[N+](C)(CCCCCCCC)CCCCCCCC.CCCCCCCC[N+](C)(CCCCCCCC)CCCCCCCC.O=C([O-])CCCCCCCCCCC(=O)[O-] [ILN18-DC12, reference compound] | Insoluble (2 separate phases) |  |  |  |  | 
